Measurements as given in US8778871B2 (Takeda Pharmaceutical Company Limited, priority 2004, dated 2014).
Non-standard residues stand in square brackets, D forms with d. Residues, ends and D or L forms follow the SMILES beside them. *: point of attachment. Propanoyl(3-(3-pyridyl)) = O=C(CCc1cccnc1)*; Arg(Me) = CNC(=N)NCCC[C@H](N)C(=O)O; d4Pal = N[C@H](Cc1ccncc1)C(=O)O; azaGly = NNC(=O)O

Tests used:
[1] = Induction of ovulation in immature rat using metastin derivatives; format: in vivo; conditions: for progesterone level compared with hCG administration / dose to be administered for induction of ovulation equivalent to hCG / number of oocytes in average per rat: eCG-primed immature female Wistar rats; for dose to be administered for induction of ovulation equivalent to hCG: s.c.; for blood progesterone level: relative to Group A (hCG)
Protocol: Equine chorionic gonadotropin (eCG, serotropin, Dainippon Pharmaceutical Co., Ltd.) was dissolved in saline (Otsuka Pharmaceutical Co., Ltd.) in a concentration of 100 IU/mL. Using a 1 ml tuberculin syringe and a 26-gauge needle (both by Terumo Co., Ltd.), eCG was subcutaneously injected into the dorsal area of female Wistar rats of 23 days old after birth (Charles River Japan, Inc.) in a dose of 10 IU/animal, during 9:00 to 10:00 AM. Following the eCG injection, the animal was grouped after 47 to 48 hours as shown below, to which groups, each drug was injected.
Group B (5 rats): Compound No. 305 was dissolved in saline at 33.3 nmol/mL and the solution was subcutaneously injected into the back in a dose of 6.7 nmol/animal.
Group C (5 rats): Compound No. 305 was dissolved in saline at […] and the solution was subcutaneously injected into the back in a dose of 2.0 nmol/animal.
Group D (5 rats): Compound No. 322 was dissolved in saline at 33.3 nmol/mL and the solution was subcutaneously injected into the back in a dose of 6.7 nmol/animal.
Group E (5 rats): Compound No. 322 was dissolved in saline at 10.0 nmol/mL and the solution was subcutaneously injected into the back in a dose of 2.0 nmol/animal.
Group F (6 rats): Saline was subcutaneously injected into the back in a dose of 200 μL/animal.
After administration of these drugs, the animal was sacrificed by decapitation after 24 to 25 hours to recover blood, bilateral oviducts and uterus. In collecting blood, 90 μl of 10 KIU/mL aprotinin solution (Trasylol, Bayer) containing 3 mg/ml EDTA had been previously filled in a tube for recovery to prevent blood clotting. After blood recovery, the blood was thoroughly blended and the mixture was centrifuged at 2,000 G for 25 minutes. After the supernatant was recovered, the product was used as a plasma sample.
The number of oocytes was counted by referring to the method described in Eur. J. Endocrinol., 138, 594-600 (1998).
Where retention of oocytes in the oviducal ampulla was confirmed by stereomicroscopic observation of the oviduct, the ampulla was punctured with a 27-gauge needle for syringe (Terumo) to retrieve the oocytes. After granulosa cells surrounding the oocytes were removed by trypsin treatment, the number of oocytes was counted. Where retention of oocytes in the oviducal ampulla was not confirmed by stereomicroscopic observation of the oviduct, a with 27-gauge needle with the polished tip for syringe was inserted into the tubal ostium and more than 400 μL of saline was flushed into the oviduct and uterine for rinsing. Then, the presence or absence of oocytes in the effluent was observed.
The blood estradiol level was measured by radioimmunoassay (DPC.Estradiol Kit, Iatron, Inc.).
The blood progesterone level was measured by radioimmunoassay (DPC.Progesterone, Iatron, Inc.).

hOT7T175 [2] = target: T1, hOT7T175 (Homo sapiens, UniProt Q969F8); test: Intracellular Ca ion level-increasing activity using FLIPR (180 seconds; specific activity to Metastin (1-54)); format: cell-based; conditions: hOT7T175/CHO, change in intracellular calcium ion level for 180 seconds, Tables 21-23
T1 construct: expressed in transfected cells
T1 sequence (Q969F8 whole entry L364H): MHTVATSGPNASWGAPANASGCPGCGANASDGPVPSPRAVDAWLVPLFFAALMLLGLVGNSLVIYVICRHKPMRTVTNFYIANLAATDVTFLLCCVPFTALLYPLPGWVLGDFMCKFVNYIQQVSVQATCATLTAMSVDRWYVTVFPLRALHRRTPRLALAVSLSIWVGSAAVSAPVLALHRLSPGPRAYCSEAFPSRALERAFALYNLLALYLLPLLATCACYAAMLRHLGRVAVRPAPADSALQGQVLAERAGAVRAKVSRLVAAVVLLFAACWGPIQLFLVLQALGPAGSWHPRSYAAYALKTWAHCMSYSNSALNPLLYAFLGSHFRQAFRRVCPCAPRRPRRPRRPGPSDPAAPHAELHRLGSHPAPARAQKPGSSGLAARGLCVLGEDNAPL

hOT7T175 [3] = target: T2, hOT7T175 (Homo sapiens, UniProt Q969F8, L364H); format: cell-based; conditions: hOT7T175/CHO, FLIPR, evaluation for 40 seconds after initiation of the reaction
T2 construct: expressed in transfected cells
T2 sequence (Q969F8 whole entry L364H): as above
Protocol: The intracellular Ca ion level-increasing activity was measured using FLIPR as in TEST EXAMPLE 2.

[4] = system: human colonic carcinoma-derived cell line SW620; test: Tumor growth inhibition activity in tumor-bearing mice; format: in vivo, mouse; conditions: for tumor growth inhibition (tumor size) compared to the vehicle group: s.c. osmotic pump; for effect of tumor growth inhibition relative to Metastin: in vivo
Protocol: The abscissa denotes the number of days after injection. The bar on the abscissa designates a dosing period. The ordinate denotes a tumor size (mm^3).
On the following day, human colonic carcinoma-derived cell line SW620 (ATCC) was dissolved in 20 mM phosphate buffered saline (pH 7.2)(PBS) containing 200 μL of 0.15M NaCl at a density of 2×10^6 cells. The resulting solution was subcutaneously injected into the left flank of the mice above. The day when the cells were injected was made Day 0. Tumor was measured with an electronic caliper every other or 2 other days during Days 4 to 13 from the cell administration, and tumor size was calculated by the equation: (shorter diameter)^2×longer diameter/2.

[5] = s.c. 2.0 nmol/animal (Groups C, E)
[6] = s.c. 6.7 nmol/animal (Groups B, D)
[7] = SW620 tumor-bearing BALB/cAnN-nu mice, 1 mM, 24 mol/day/mouse×14 days (24 nmol for Compound No. 305)
[8] = SW620 tumor-bearing mice, 0.1 mM, 1/10 dose of Metastin, 2.4 mol (nmol)/day/mouse×14 days

SMILES | progesterone level compared with hCG administration [1] | dose to be administered for induction of ovulation equivalent to hCG [1] | number of oocytes in average per rat [1, 5] [oocytes] | number of oocytes in average per rat [1, 6] [oocytes] | blood estradiol level [1, 5] | blood progesterone level [1, 5] | blood estradiol level [1, 6] | blood progesterone level [1, 6] | intracellular Ca ion level-increasing activity [specific activity to Metastin (1-54)] (hOT7T175 [2]) | Specific Act. (EC50/MS10 EC50) (hOT7T175 [3]) | tumor growth inhibition (tumor size) compared to the vehicle group [4, 7] | effect of tumor growth inhibition relative to Metastin ([4]; SW620 tumor-bearing mice) [times] | tumor growth inhibition (tumor size) compared to the vehicle group [4, 8] | rats ovulated ([1]; Group E, s.c. 2.0 mmol (so in the source) per animal) | tumor growth inhibition (tumor size) compared with the Metastin group ([4]; SW620 tumor-bearing mice, same dose as Metastin, 24 mol/day/mouse×14 days)
CNC(=N)NCCC[C@H](NC(=O)[C@H](CC(C)C)NC(=O)NNC(=O)[C@H](Cc1ccccc1)NC(=O)[C@H](CO)NC(=O)[C@H](CC(N)=O)NC(=O)[C@@H](Cc1ccncc1)NC(=O)[C@H](N)Cc1ccc(O)cc1)C(=O)N[C@@H](Cc1ccccc1)C(N)=O [Compound No. 305, D-Tyr-D-Pya(4)-Asn-Ser-Phe-AzaGly-Leu-Arg(Me)-Phe-NH2] (H-[dY][d4Pal]NSF[azaGly]L[Arg(Me)]F-NH2) | lower than in the hCG administration | at least 2.0 mmol/animal | 29.4 | 32.6 | no difference was found among Groups A, B, C and D | less than a half of the level in Group A | no difference was found among Groups A, B, C and D | less than a half of the level in Group A | 5 | 2.0 | significant effect of tumor growth inhibition from Days 5 to 9 and on Day 11 | 10 | significant tumor growth inhibition activity from Days 5 to 11 |  | 
CNC(=N)NCCC[C@H](NC(=O)[C@H](CC(C)C)NC(=O)NNC(=O)[C@H](Cc1ccccc1)NC(=O)[C@H](CO)NC(=O)[C@H](CC(N)=O)NC(=O)CCc1cccnc1)C(=O)N[C@@H](Cc1ccccc1)C(N)=O [Compound No. 322, 3-(3-Pyridyl)propionyl-Asn-Ser-Phe-AzaGly-Leu-Arg(Me)-Phe-NH2] ({Propanoyl(3-(3-pyridyl))}-NSF[azaGly]L[Arg(Me)]F-NH2) | lower than in the hCG administration | at least 6.7 mmol/animal | 11.6 | 29.6 | tendency to show a higher level in rats with no ovulation induction | very low level | no difference was found among Groups A, B, C and D | less than a half of the level in Group A | 1 | 5.4 | significant tumor growth inhibition activity from Days 6 to 11 | 10 | significant tumor growth inhibition activity in a 1/10 dose (2.4 mol/day/mouse×14 days) of Metastin from Days 6 to 8 | 3 out of 5 | on Day 11, showed a significant tumor growth inhibition activity even when compared with the Metastin group
